Data as given in patent US11053170B2, “Liquid urease inhibitor formulations” (YARA INTERNATIONAL ASA, priority 2016, dated 2021).

How the values were obtained:
[1] = test system: rat; conditions: cited from earlier work
[2] = test system: urease; conditions: on urea; Rheinland soil (pH 6.5) and Palencia soil (pH 7.5); 25° C., 14 days
Procedure: Erlenmeyer flasks were filled with 300 g air-dried, arable topsoil, irrigated to a desired % of its WHC (Water Holding Capacity), incubated for 6 days prior to the application of the fertilizers. Fertilizers (2.5-3.15 mm granule size) at a concentration of 100 mg N (Nitrogen)/flask were applied over the soil surface. Boric acid traps were installed to catch volatile ammonia from the air above the topsoil, and the Erlenmeyer flasks were installed in a Phytotron chamber at 25° C. at windy but not dry conditions.

[3] = Stability of nBTPT on urea granules (coated); format: physicochemical; conditions: 500 ppm, bagged, room temperature
Procedure: In a next step, the nBTPT material was slowly added. A residence time of 10 minutes was applied and the rotating speed of the drum was consequently the same in each experiment. Larger scale experiments with amounts up to 40 kg of fertilizer material were performed in a concrete mixer.
The samples were stored under several conditions, dependent on the type of samples: • Bagged at room temperature (20° C.) or in a Nissen hut (an unconditioned bulk storage hall) • Open to air in a Nissen hut
Typically, a day/night cycle is generated in the Nissen hut, with temperature fluctuations between 0 to 42° C. and fluctuations of relative humidity between 20 and 90%, which can be compared with real life storage in silos.

CN1CCCC1 [NMP, N-methylpyrrolidine]
toxicity oral rat LD50 [1]: 3914 mg/kg

CCCCNP(N)(N)=S [nBTPT, N-(n-butyl) thiophosphoric triamide]
urease inhibitory activity and volatilization control (cumulated volatile ammonia losses) [2]: no statistically significant difference
nBTPT degradation in 155 days [3]: about 75%
